Measured values as given in patent publication US20160102099A1, “ANTI-VIRAL COMPOUNDS” (Kineta, Inc., priority 2011, published 2016).
“Also recorded” adds a separate entry of the source.

Experiments:
[1] = test system: IFNβ promoter; assay: Luciferase reporter assay, IFNβ promoter; type: cell-based; settings: stably transfected human cells, 18-20 hours with compound, FIG. 1A
Method: (§1) Luciferase Assay to Identify Active Compounds. Cultured human cells that were stably transfected with luciferase reporter gene driven by RIG-I responsive promoter (IFNβ, ISG56, or ISG54 promoter) were seeded and allowed to grow overnight. The compound “KIN2000” was then added and cells were grown in the presence of KIN2000 for 18-20 hours. Steady-Glo luciferase substrate (Promega) was added and luminescence was read on a luminometer (Berthold).

[2] = test system: IRF-3; assay: Immunofluorescent cytochemistry assay, IRF-3 activation and translocation to the nucleus; type: cell-based, human; settings: U2OS cells (method) / HeLa cells (figure legend), 20 hours, increasing amounts, FIG. 2A
Method: Immunofluorescent Cytochemistry Assay to Determine IRF-3 Activation and Translocation to the Nucleus.
The induction of ISG expression mediated by RIG-I is conferred by phosphorylation, dimerization, and nuclear translocation of the IRF-3 transcription factor. Cultured human U2OS cells were treated with increasing amounts of compound or equivalent amounts of DMSO diluted in media for 20 hours. Positive control wells were infected with 100 HA/mL Sendai virus for an equivalent time period. IRF-3 was detected using polyclonal rabbit serum specific to IRF-3 and a secondary antibody conjugated to DYLIGHT™ 488.
(§2) Quantification of Immunofluorescent Assays.
(§3) 96-well plates containing cultured human cells treated with compound and stained for either IRF-3 or NFκB were scanned and quantified using the ARRAYSCAN® instrument and software (Cellomics). Activation of transcription factor is evidenced by increased nuclear intensity normalized for cytoplasmic intensity, or nuclear-cytoplasmic difference.

[3] = test system: NFκB; assay: Immunofluorescent cytochemistry assay, NFκB activation; type: cell-based, human; settings: HeLa cells, 20 hours, increasing amounts, FIG. 2B
Method: Immunofluorescent Cytochemistry Assay to Determine NFκB Activation.
The innate immune response dependent on RIG-I also activates the NFκB transcription factor and thus increases nuclear levels. Cultured human HeLa cells were treated with increasing amounts of compound or equivalent amounts of DMSO diluted in media for 20 hours. Positive control wells were infected with 100 HA/mL Sendai virus for an equivalent time period. NFκB was detected using, in this example, monoclonal mouse antibody specific to the p65 subunit of NFκB and a secondary antibody conjugated to DyLight 488.
as §2, §3

[4] = test system: ISG56 promoter; assay: Luciferase reporter assay, ISG56 promoter; type: cell-based; settings: stably transfected human cells, 18-20 hours with compound, FIG. 1A
Method: as §1

[5] = test system: HeLa cells; assay: MTS assay to determine cytotoxicity; type: cell-based, human; settings: 48 hours, 0, 1, 5, 10 and 20 μM, FIG. 1C
Method: MTS Assay to Determine Cytotoxicity. Cultured human HeLa cells were treated with increasing amounts of compound or equivalent amounts of DMSO diluted in media for 48 hours to see their effect on cell viability. The proportion of viable cells was calculated using a cell viability assay that measures conversion of a tetrazolium compound (3-(4,5-dimethyl-2-yl)-5-(3-carboxymethoxyphenyl)-2-(4-sulfophenyl)-2H-tetrazolium, inner salt; the MTS assay) to a colored formazan compound in live cells. The conversion of MTS to formazan was detected in a 96-well microtiter plate reader, and the resulting optical densities could then be plotted directly to estimate cell viability. CELLTITER 96® AQueous One Solution Cell (Promega) was the one-step assay used, according to the manufacturer's protocol, and cells were incubated for three hours in the presence of reagent before O.D. reading was done. KIN2000 was diluted to final concentrations of 0, 1, 5, 10, and 20 μM in media containing 0.5% DMSO. Negative control wells contained no compound, and positive control for cytotoxicity was examined using an EMCV infection which causes 100% cytopathic effect. Each compound concentration and control was done in triplicate wells.

[6] = test system: β-actin promoter; assay: Actin counterscreen (β-actin-luciferase reporter); type: cell-based, human; settings: specificity counterscreen, FIG. 1B
[7] = test system: ISG54 promoter; assay: Luciferase reporter assay, ISG54 promoter; type: cell-based; settings: stably transfected human cells, 18-20 hours with compound, FIG. 1A
Method: as §1

[8] = test system: human primary dendritic cells; assay: Ex vivo cytokine expression in primary dendritic cells (Luminex/MAGPIX); type: cell-based; settings: dendritic cells, 0, 1 or 10 μM, 24 hours, supernatant, FIG. 3
Method: The activity of KIN2000 in primary immune cells was assayed to determine whether KIN2000 stimulates immune responses. In this example, cultured human primary dendritic cells were treated with 0, 1, or 10 μM of KIN2000 for 24 hours. Supernatant from treated wells was isolated and tested for levels of cytokine protein. Cytokines were detected using specific antibodies conjugated to magnetic beads and a secondary antibody that reacts with Streptavidin/Phycoerythrin to produce a fluorescent signal. The bound beads were detected and quantified using the MAGPIX® instrument (LUMINEX®) in this Example, but a similar technique can also be used to measure fluorescent protein production, such as an ELISA.

- induction of IFNβ-luciferase reporter gene [1]: dose-dependent induction
- induction of ISG56-luciferase reporter gene [4]: dose-dependent induction
- induction of ISG54-luciferase reporter gene [7]: dose-dependent induction
Structure (SMILES): Cn1c(=O)c2c(SCc3cccc(C(F)(F)F)c3)nc(-c3ccco3)nc2n(C)c1=O [KIN2000]
- IRF-3 translocation to the nucleus (nuclear-cytoplasmic difference) [2]: dose dependent increase; also recorded: dose-dependent increase
- NFκB translocation (nuclear-cytoplasmic difference) [3]: dose dependent increase; also recorded: dose-dependent increase
- cytotoxicity (MTS cell viability) [5]: no evident cytotoxicity; also recorded: did not show evident cytotoxicity
- induction of non-specific β-actin promoter (luciferase reporter) [6]: did not induce; also recorded: does not induce
- IL-8 expression [8]: induce expression; also recorded: dose-dependent expression
- MCP-1 (CCL2) expression [8]: induce expression; also recorded: dose-dependent expression
- MIP-1α (CCL3) expression [8]: induce expression; also recorded: dose-dependent expression
- MIP-1β (CCL4) expression [8]: induce expression; also recorded: dose-dependent expression
